Reference: patent US20080292733A1, “Antioxidant and Fe2+ Chelating Properties of Herbal Extracts” (priority 2005, published 2008)
Read-outs that look alike come from different tables or passages of the source.

What was measured:
[1] = system: SH—SY5Y cells; assay: Neuroblastoma cell viability assay (WST-1), SH—SY5Y; assay type: cell-based, human
[2] = system: N1E 115 cells; assay: Neuroblastoma cell viability assay (WST-1), N1E 115; assay type: cell-based, murine; conditions: N1E 115, 96 hours
[3] = Fe^2+ chelation assay (ferrozine, cell-free)
[4] = SH—SY5Y, 96 hours, dose-response
[5] = cell-free, 0.5 mM FeSO4, 1 mM ferrozine, titration curves, absorbance 562 nm

SMILES	effect on cell number (dose-response curve) [1, 4]	effect on cell number (dose-response curve) [2]	inhibition of Fe(ferrozine)3^2+ complex formation [3, 5]	further results
C[C@@H]1C(=O)O[C@H]2C[C@@]34[C@H]5C[C@@H](C(C)(C)C)[C@]36[C@@H](OC(=O)[C@@H]6O)O[C@@]4(C(=O)O5)[C@]21O [ginkgolide A]	Only quercetin demonstrated significant inhibition of cell number	Only quercetin demonstrated significant inhibition of cell number	–	inhibition of Fe(ferrozine)3^2+ complex formation [3]: no activity
CC(C)=CCC[C@]1(C)[C@@H](CC=C(C)C)C[C@@]2(CC=C(C)C)C(=O)[C@]1(C(=O)C(C)C)C(=O)C(CC=C(C)C)=C2O [hyperforin]	–	significant and dose-dependent suppression of cell number	–	effect on cell number (dose-response curve) [1]: significant and dose-dependent suppression of cell number
CC1C(=O)OC2C(O)C34C5CC(C(C)(C)C)C36C(OC(=O)C6O)OC4(C(=O)O5)C12O (stereo not shown) [ginkgolide B]	Only quercetin demonstrated significant inhibition of cell number	Only quercetin demonstrated significant inhibition of cell number	no activity	–
CC(=O)N(O)CCCCCNC(=O)CCC(=O)N(O)CCCCCNC(=O)CCC(=O)N(O)CCCCCN [DFO, desferroxamine, reference compound]	biphasic effects	suppress neuroblastoma cell number	able to prevent Fe(ferrozine)3^2+ complex formation	–
CC(C)=CCC[C@](C)(O[C@@H]1O[C@H](CO[C@@H]2O[C@@H](CO)[C@H](O)[C@H]2O)[C@@H](O)[C@H](O)[C@H]1O)[C@H]1CC[C@]2(C)[C@@H]1[C@H](O)C[C@@H]1[C@@]3(C)CC[C@H](O[C@@H]4O[C@H](CO)[C@@H](O)[C@H](O)[C@H]4O[C@@H]4O[C@H](CO)[C@@H](O)[C@H](O)[C@H]4O)C(C)(C)[C@@H]3CC[C@]12C [Rc, ginsenoside Rc]	–	–	demonstrated the ability to inhibit Fe^2+ interaction with ferrozine	–
O=c1c(O)c(-c2ccc(O)c(O)c2)oc2cc(O)cc(O)c12 [quercetin]	significant inhibition of cell number	significant inhibition of cell number	able to inhibit Fe(ferrozine)3^2+ complex formation	concentration at which significant (P<0.05) inhibition of cell number is first apparent ([1]; SH—SY5Y, 96 hours): 5 µg/mL; concentration at which significant (P<0.05) inhibition of cell number is first apparent [2]: 5 µg/mL
CC(C)=CCC[C@](C)(O[C@@H]1O[C@H](CO)[C@@H](O)[C@H](O)[C@H]1O)[C@H]1CC[C@]2(C)[C@@H]1[C@H](O)C[C@@H]1[C@@]3(C)CC[C@H](O[C@@H]4O[C@H](CO)[C@@H](O)[C@H](O)[C@H]4O[C@@H]4O[C@H](CO)[C@@H](O)[C@H](O)[C@H]4O)C(C)(C)[C@@H]3CC[C@]12C [Rd, ginsenoside Rd]	–	–	demonstrated the ability to inhibit Fe^2+ interaction with ferrozine	–
CC(C)=CCC[C@](C)(O[C@@H]1O[C@H](CO[C@@H]2O[C@H](CO)[C@@H](O)[C@H](O)[C@H]2O)[C@@H](O)[C@H](O)[C@H]1O)[C@H]1CC[C@]2(C)[C@@H]1[C@H](O)C[C@@H]1[C@@]3(C)CC[C@H](O[C@@H]4O[C@H](CO)[C@@H](O)[C@H](O)[C@H]4O[C@@H]4O[C@H](CO)[C@@H](O)[C@H](O)[C@H]4O)C(C)(C)[C@@H]3CC[C@]12C [Rb1, ginsenoside Rb1]	–	–	demonstrated the ability to inhibit Fe^2+ interaction with ferrozine	–
